Patent publication US20090220473A1, “ADIR RELATED POLYMORPHISMS AND APPLICATIONS THEREOF” (Leiden University Medical Center, priority 2006, published 2009)
Entries after “also recorded” stand apart in the source; their conditions may differ.

Columns and labels:
T2 cells = experiment: 51Cr release assay on peptide loaded T2 cells with CTL; assay type: cell-based; conditions: for recognition (lysis) by RDR2 of peptide loaded T2 cells: 51Cr release assay, FIG. 2b
Description: Cytotoxicity of CTL clones in standard ^51Cr release assays was performed as described previously (Faber et al. 1992, J Exp Med 176: 1283-1289). Target cells were labelled with 100 μCi Na2^51CrO4 (Amersham Biosciences, Freiburg, Germany) for 1 hour at 37° C., washed, and diluted to […] to 5*10^4 cells per ml to obtain 10^3 to 5*10^3 target cells per well. CTL's were added in various effector:target (E:T) ratios and incubated for 4 hours. Supernatants were harvested and transferred to solid scintillator containing microplates (Perkin Elmer, Boston Mass., USA) and counted on a Topcount counter (Perkin Elmer). HPLC purified natural peptides or diluted synthetic peptides were tested for reactivity by loading ^51Cr labelled T2 or donor EBV LCL cells for 1-2 hours at 37° C. and 5% CO2 prior to addition of CTL.

[1] = biological target: T1, recombinant HLA A*0201 molecules (Homo sapiens, UniProt P04439, D140Y/D185E/D98H/E176V/E277Q/G131W/G231S/I119V/I121R/I166T/I218V/L300P/L318F/N151K/N90K/P208A/P217A/Q86G/Q94H/R138H/R169H/T345S); experiment: Binding of peptides to recombinant HLA A*0201 molecules (monomer folding)
T1 construct: biotin (biotinylated); made in house
From the text: Recombinant biotinilated HLA A*0201 monomers were folded in the presence of β2-microbglobulin with peptide […] or […]. Streptavidin-PE and streptavidin-APC tetramers were produced with refolded complexes as described previously (Altman et al. 1996 Science 274: 94-96). Tetrameric complexes were used to stain thawed patient samples taken at the indicated time points post SCT and DLI. Cells were counterstained by CD8 APC (Caltag, Burlingame, Calif., USA) and analysed by flowcytometry. Tetramer positive events were single well FACS sorted, expanded and tested for cytotoxicity.

GVHD = experiment: Treatment of acute GVHD in the patient after DLI; assay type: in vivo, human; conditions: 1 mg prednisolone/kg body weight and cyclosporin A together
[2] = biological target: recombinant HLA A*0201 molecules (human, biotinylated (site not stated)); experiment: refolding of recombinant HLA A*0201 with beta2-microglobulin and peptide

Molecule: SVAPAXAXFPA
- peptide level at which lysis by RDR2 was reconstituted (T2 cells; 51Cr labelled T2 cells loaded with synthetic peptide, levels as low as, data not shown): ≤ 10 pM

Molecule: SVAPALALSPA [SVAPALAL-S-PA, donor-type allelic counterpart peptide with serine at position 9, reference compound]
- recognition (lysis) by RDR2 of peptide loaded T2 cells (T2 cells): not
- binding to recombinant HLA A*0201 molecules [1]: able to bind

Molecule: SVAPALALFPA [LB-ADIR-1F]
- recognition (lysis) by RDR2 of peptide loaded T2 cells (T2 cells): lysed; also recorded: recognized
- binding to recombinant HLA A*0201 molecules [1]: able to bind

Molecule: C[C@]12C=CC(=O)C=C1CC[C@@H]1[C@@H]2[C@@H](O)C[C@@]2(C)[C@H]1CC[C@]2(O)C(=O)CO [prednisolone]
- treatment of GVHD (GVHD): treated successfully

Molecule: SVAPALALFPA (Synthetic 11-mer) [LB-ADIR-1F peptide SVAPALALFPA]
- binding result [2]: binds

B1: peptide SVAPALALSPA (peptide)
peptide: SVAPALALSPA
notes: Synthetic peptide of the donor-type (Ser) allele
- binding result [2]: binds
